Source: paper PMC12555108, “In‐vitro Assessment of BCRP‐Mediated Efflux of Antiseizure Medications in Human Blood‐Brain Barrier Cell Model” (Journal of Biochemical and Molecular Toxicology, 2025)

Key:
BCRP [1] = molecular target: T1, BCRP (Homo sapiens, UniProt Q9UNQ0); set-up: host or cells: MCF-7 cells overexpressing BCRP; conditions: previous study; cited from earlier work
T1 sequence (Q9UNQ0 1-655): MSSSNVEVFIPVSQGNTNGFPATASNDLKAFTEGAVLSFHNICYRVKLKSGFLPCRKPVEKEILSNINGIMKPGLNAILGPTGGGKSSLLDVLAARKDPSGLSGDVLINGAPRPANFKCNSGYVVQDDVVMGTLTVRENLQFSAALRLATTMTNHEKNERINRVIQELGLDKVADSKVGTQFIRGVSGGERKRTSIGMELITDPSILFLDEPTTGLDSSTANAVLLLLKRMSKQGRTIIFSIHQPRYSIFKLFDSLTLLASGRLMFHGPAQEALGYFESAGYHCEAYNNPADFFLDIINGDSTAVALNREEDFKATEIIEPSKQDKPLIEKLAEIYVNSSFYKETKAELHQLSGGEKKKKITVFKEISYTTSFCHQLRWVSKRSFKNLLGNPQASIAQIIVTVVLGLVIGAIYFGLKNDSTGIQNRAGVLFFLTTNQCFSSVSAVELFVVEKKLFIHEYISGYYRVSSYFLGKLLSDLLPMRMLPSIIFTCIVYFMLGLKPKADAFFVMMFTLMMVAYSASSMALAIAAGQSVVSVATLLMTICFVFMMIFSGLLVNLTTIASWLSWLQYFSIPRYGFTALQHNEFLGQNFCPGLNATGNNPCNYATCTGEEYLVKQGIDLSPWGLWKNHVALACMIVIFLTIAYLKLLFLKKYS

BCRP [2] = molecular target: T1, BCRP; conditions: previous data; cited from earlier work
BCRP [3] = molecular target: T1, BCRP; test: bidirectional transport assay across hCMEC/D3 cell monolayer with or without Ko143; conditions: for transport by BCRP (conclusion of bidirectional transport assay): ER ≥ 1.5 and significantly reduced by Ko143; for Papp A→B at 2 h, 40 μM / Papp A→B at 2 h, 80 μM / Papp B→A at 2 h, 40 μM / Papp B→A at 2 h, 80 μM / efflux ratio at 2 h, 40 μM / efflux ratio at 2 h, 80 μM / Papp A→B at 2 h, 300 µM / Papp A→B at 2 h, 600 μM / Papp B→A at 2 h, 300 µM / Papp B→A at 2 h, 600 μM / efflux ratio at 2 h / efflux ratio at 2 h, 300 µM / efflux ratio at 2 h, 600 μM: human
Method: For transport assays, hCMEC/D3 cells were seeded on collagen type I‐coated Transwell inserts (polycarbonate 12‐well, pore size […]) (cat. no. CLS3460; Corning, NY, USA) at 80% confluency and cultured as described in section 2.5. In brief, the drug was dissolved in Hanks’ balanced salt solution supplemented with 10 mM HEPES, 1 mM Na‐Pyruvate, pH 7.4 at 37°C (transport buffer). Initially, both sides of the chamber were washed with 1X PBS and the assay was performed with pre‐warmed transport buffer. 0.5 ml or 1.5 ml of the drug solution, with or without BCRP‐specific inhibitor Ko143 (1 μM) was added to either the apical side or basolateral side of the monolayer, respectively, and fresh transport buffer was added to the opposite side. Aliquots of 100 μl samples were taken from the opposite sides every 30 min for 2 h, and the same amount of fresh transport buffer was added to the same chamber after each sampling. […] Concentrations of ASMs were evaluated by HPLC or LC/MS. Apparent permeability (Papp) is defined as the transport rate of ASM and efflux ratio (ER) was calculated as the ratio of Papp in the basolateral‐to‐apical (Papp(B→A)) direction to the Papp in the apical‐to‐basolateral (Papp(A→B)) direction. The samples were stored at −20°C until analysis. […] Fluorescence detection of lucifer yellow (excitation at 430 nm, and emission at 535 nm) was carried out with Infinite 200 PRO NanoQuant (Tecan, Zurich, Switzerland). […] All transport assays were performed in triplicate.
The calculation for apparent permeability coefficient, Papp, was performed as described before. Papp=dQr/dt/A×C0 where dQr/dt is the cumulative amount in the receiver side vs time in μM/s
A is the area of the cell monolayer
C0 is the initial concentration of the dosing solution (μM).
And, Efflux ratio=Papp(B−to−A)/Papp(A−to−B)

[4] = set-up: method as in Johannessen, 2004; Patsalos, 2008; Lee, 2016; conditions: patients with epilepsy; ref Johannessen, 2004; Patsalos, 2008; Lee, 2016; cited from earlier work

Compound: O=C1NC(=O)C(c2ccccc2)(c2ccccc2)N1 [PHT, phenytoin]
- stimulation of BCRP ATPase activity (BCRP [1]): stimulated
- BPZ accumulation in competitive substrate efflux assay in hCMEC/D3 cells (BCRP [2]): increased BPZ accumulation
- Efflux ratio (ER), hCMEC/D3 without inhibitor Ko143 (BCRP [3]; 80 μM, hCMEC/D3 monolayer): 1.53
- transport by BCRP (conclusion of bidirectional transport assay) (BCRP [3]; hCMEC/D3 monolayer): not
- Papp A→B at 2 h, 40 μM (BCRP [3]; pH 7.4): 2.12 ×10⁻⁶ cm/s
- Papp A→B at 2 h, 80 μM (BCRP [3]; pH 7.4): 3.09 ×10⁻⁶ cm/s
- Papp B→A at 2 h, 40 μM (BCRP [3]; pH 7.4): 2.59 ×10⁻⁶ cm/s
- Papp B→A at 2 h, 80 μM (BCRP [3]; pH 7.4): 3.36 ×10⁻⁶ cm/s
- efflux ratio at 2 h, 40 μM (BCRP [3]; pH 7.4, Efflux ratio (ER), hCMEC/D3 without inhibitor Ko143, 40 μM, hCMEC/D3 monolayer): 1.28
- efflux ratio at 2 h, 80 μM (BCRP [3]; pH 7.4, Efflux ratio (ER), hCMEC/D3 without inhibitor Ko143, 80 μM, hCMEC/D3 monolayer): 1.5
- Papp A→B at 2 h, 40 μM (BCRP [3]; pH 7.4, with Ko143 1 μM): 2.71 ×10⁻⁶ cm/s
- Papp A→B at 2 h, 80 μM (BCRP [3]; pH 7.4, with Ko143 1 μM): 2.03 ×10⁻⁶ cm/s
- Papp B→A at 2 h, 40 μM (BCRP [3]; pH 7.4, with Ko143 1 μM): 3.07 ×10⁻⁶ cm/s
- Papp B→A at 2 h, 80 μM (BCRP [3]; pH 7.4, with Ko143 1 μM): 2.12 ×10⁻⁶ cm/s
- efflux ratio at 2 h, 40 μM (BCRP [3]; pH 7.4, with Ko143 1 μM, Efflux ratio (ER), hCMEC/D3 with inhibitor Ko143, 40 μM, hCMEC/D3 monolayer, 1 μM Ko143): 1.17
- efflux ratio at 2 h, 80 μM (BCRP [3]; pH 7.4, with Ko143 1 μM, Efflux ratio (ER), hCMEC/D3 with inhibitor Ko143, 80 μM, hCMEC/D3 monolayer, 1 μM Ko143): 1.31
- Therapeutic plasma concentration range [4]: 40 to 80 µM

Compound: CCCC(CCC)C(=O)O [VPA, valproic acid]
- stimulation of BCRP ATPase activity (BCRP [1]): stimulated
- BPZ accumulation in competitive substrate efflux assay in hCMEC/D3 cells (BCRP [2]): increased BPZ accumulation
- transport by BCRP (conclusion of bidirectional transport assay) (BCRP [3]; hCMEC/D3 monolayer): transports
- Papp A→B at 2 h, 300 µM (BCRP [3]; pH 7.4): 0.19 ×10⁻⁶ cm/s
- Papp A→B at 2 h, 600 μM (BCRP [3]; pH 7.4): 0.34 ×10⁻⁶ cm/s
- Papp B→A at 2 h, 300 µM (BCRP [3]; pH 7.4): 0.31 ×10⁻⁶ cm/s
- Papp B→A at 2 h, 600 μM (BCRP [3]; pH 7.4): 0.64 ×10⁻⁶ cm/s
- efflux ratio at 2 h (BCRP [3]; pH 7.4, Efflux ratio (ER) without inhibitor, at all the tested concentrations, hCMEC/D3 monolayer): > 1.5
- efflux ratio at 2 h, 300 µM (BCRP [3]; pH 7.4, Efflux ratio (ER), hCMEC/D3 without inhibitor Ko143, 300 μM, hCMEC/D3 monolayer): > 1.5
- efflux ratio at 2 h, 600 μM (BCRP [3]; pH 7.4, Efflux ratio (ER), hCMEC/D3 without inhibitor Ko143, 600 μM, hCMEC/D3 monolayer): > 1.5
- Papp A→B at 2 h, 300 µM (BCRP [3]; pH 7.4, with Ko143 1 μM): 0.21 ×10⁻⁶ cm/s
- Papp A→B at 2 h, 600 μM (BCRP [3]; pH 7.4, with Ko143 1 μM): 0.33 ×10⁻⁶ cm/s
- Papp B→A at 2 h, 300 µM (BCRP [3]; pH 7.4, with Ko143 1 μM): 0.24 ×10⁻⁶ cm/s
- Papp B→A at 2 h, 600 μM (BCRP [3]; pH 7.4, with Ko143 1 μM): 0.37 ×10⁻⁶ cm/s
- efflux ratio at 2 h (BCRP [3]; pH 7.4, with Ko143 1 µM, Efflux ratio (ER) in the presence of Ko143, at all the tested concentrations, hCMEC/D3 monolayer, 1 μM Ko143): ~1
- efflux ratio at 2 h, 300 µM (BCRP [3]; pH 7.4, with Ko143 1 µM, Efflux ratio (ER), hCMEC/D3 with inhibitor Ko143, 300 μM, hCMEC/D3 monolayer, 1 μM Ko143): 1.1
- efflux ratio at 2 h, 600 μM (BCRP [3]; pH 7.4, with Ko143 1 μM, Efflux ratio (ER), hCMEC/D3 with inhibitor Ko143, 600 μM, hCMEC/D3 monolayer, 1 μM Ko143): 1.14
- Therapeutic plasma concentration range [4]: 300 to 600 µM
